Molecular target: T1, ALK2 (Homo sapiens, UniProt Q04771)
T1 construct: purchased ThermoFisher Scientific (Life Technologies)
T1 sequence (Q04771 21-509): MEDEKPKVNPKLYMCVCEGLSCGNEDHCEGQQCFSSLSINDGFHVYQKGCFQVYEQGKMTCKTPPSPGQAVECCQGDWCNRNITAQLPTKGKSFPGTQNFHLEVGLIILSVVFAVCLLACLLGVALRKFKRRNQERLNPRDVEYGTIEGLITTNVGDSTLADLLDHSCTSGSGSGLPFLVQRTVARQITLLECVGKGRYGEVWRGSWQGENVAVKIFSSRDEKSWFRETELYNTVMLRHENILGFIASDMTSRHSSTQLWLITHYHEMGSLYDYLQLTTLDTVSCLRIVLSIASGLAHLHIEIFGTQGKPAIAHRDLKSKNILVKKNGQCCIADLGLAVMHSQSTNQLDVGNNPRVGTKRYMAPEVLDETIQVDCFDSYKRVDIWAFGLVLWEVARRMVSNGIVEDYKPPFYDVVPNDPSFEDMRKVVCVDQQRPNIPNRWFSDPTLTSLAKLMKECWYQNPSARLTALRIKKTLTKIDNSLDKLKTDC
Assay: LanthaScreen Eu Kinase Binding Assay, ALK2 inhibition
Settings: 1 micromolar concentration
Description: Biochemical assays to measure the inhibitory effects of the compounds were performed by ThermoFisher Scientific (Life Technologies). ALK2 inhibition was tested using LanthaScreen™ Eu Kinase Binding Assay screening protocol.

SMILES | inhibition at 1 µM [%]
C=C(C)c1nc(Nc2cn(-c3cc(OC)c(OC)c(OC)c3)cn2)c2cc(OC)c(OC)cc2n1 [Compound 65c, 6,7-dimethoxy-2-(prop-1-en-2-yl)-N-(1-(3,4,5-trimethoxyphenyl)-1H-imidazol-4-yl)quinazolin-4-amine] | < 50
COc1cc(-n2cnc(Nc3nc(C(C)C)nn4cccc34)c2)cc(OC)c1OC [Compound 67a, 2-isopropyl-N-(1-(3,4,5-trimethoxyphenyl)-1H-imidazol-4-yl)pyrrolo[2,1-f][1,2,4]triazin-4-amine] | > 50
C=C(C)c1nc(Nc2cn(-c3cc(OC)c(OC)c(OC)c3)cn2)nc2cc(OC)c(OC)cc12 [Compound 68b, 6,7-dimethoxy-4-(prop-1-en-2-yl)-N-(1-(3,4,5-trimethoxyphenyl)-1H-imidazol-4-yl)quinazolin-2-amine] | > 50
COc1cc(-n2cnc(Nc3nc(C(C)C)nc4c3OCC4)c2)cc(OC)c1OC [Compound 69a, 2-isopropyl-N-(1-(3,4,5-trimethoxyphenyl)-1H-imidazol-4-yl)-6,7-dihydrofuro[3,2-d]pyrimidin-4-amine] | > 50
C=C(C)c1nc(Nc2cn(-c3cc(OC)c(OC)c(OC)c3)cn2)c2ccccc2n1 [Compound 70b, 2-(prop-1-en-2-yl)-N-(1-(3,4,5-trimethoxyphenyl)-1H-imidazol-4-yl)quinazolin-4-amine] | > 50
C=C(C)c1nc2c(c(Nc3cn(-c4cc(OC)c(OC)c(OC)c4)cn3)n1)COC2 [Compound 71c, 2-(prop-1-en-2-yl)-N-(1-(3,4,5-trimethoxyphenyl)-1H-imidazol-4-yl)-5,7-dihydrofuro[3,4-d]pyrimidin-4-amine] | > 50
COc1cc(-n2cnc(Nc3nc(C(C)C)nc4c3COC4)c2)cc(OC)c1OC [Compound 72a, 2-isopropyl-N-(1-(3,4,5-trimethoxyphenyl)-1H-imidazol-4-yl)-5,7-dihydrofuro[3,4-d]pyrimidin-4-amine] | > 50
COc1cc(-n2cnc(Nc3nc(C(C)C)nc4ccccc34)c2)cc(OC)c1OC [Compound 73a, 2-isopropyl-N-(1-(3,4,5-trimethoxyphenyl)-1H-imidazol-4-yl)quinazolin-4-amine] | > 50
C=C(C)c1nc(Nc2cn(-c3cc(OC)c(OC)c(OC)c3)cn2)c2ncn(C(C)C)c2n1 [Compound 74c, 9-isopropyl-2-(prop-1-en-2-yl)-N-(1-(3,4,5-trimethoxyphenyl)-1H-imidazol-4-yl)-9H-purin-6-amine] | > 50
COc1ccc2c(Nc3cn(-c4cc(OC)c(OC)c(OC)c4)cn3)nc(C(C)C)nc2c1 [Compound 75a, 2-isopropyl-7-methoxy-N-(1-(3,4,5-trimethoxyphenyl)-1H-imidazol-4-yl)quinazolin-4-amine] | > 50
C=C(C)c1nc2c(c(Nc3cn(-c4cc(OC)c(OC)c(OC)c4)cn3)n1)CCN(C(=O)OC(C)(C)C)C2 [Compound 76c, tert-butyl 2-(prop-1-en-2-yl)-4-((1-(3,4,5-trimethoxyphenyl)-1H-imidazol-4-yl)amino)-5,6-dihydropyrido[3,4-d]pyrimidine-7 (8H)-carboxylate] | < 50
COc1cc(-n2cnc(Nc3nc(C(C)C)nc4c3CCN(C(=O)OC(C)(C)C)C4)c2)cc(OC)c1OC [Compound 77a, tert-butyl 2-isopropyl-4-((1-(3,4,5-trimethoxyphenyl)-1H-imidazol-4-yl)amino)-5,6-dihydropyrido[3,4-d]pyrimidine-7 (8H)-carboxylate] | > 50
C=C(C)c1nc(Nc2cn(-c3cc(OC)c(OC)c(OC)c3)cn2)c2ncccc2n1 [Compound 78c, 2-(prop-1-en-2-yl)-N-(1-(3,4,5-trimethoxyphenyl)-1H-imidazol-4-yl)pyrido[3,2-d]pyrimidin-4-amine] | > 50
COc1cc2nc(C(C)C)nc(Nc3cn(-c4cc(OC)c(OC)c(OC)c4)cn3)c2cc1OC [Compound 79a, 2-isopropyl-6,7-dimethoxy-N-(1-(3,4,5-trimethoxyphenyl)-1H-imidazol-4-yl)quinazolin-4-amine] | < 50
C=C(C)c1nc(Nc2cn(-c3cc(OC)c(OC)c(OC)c3)cn2)c2ccsc2n1 [Compound 80c, 2-(prop-1-en-2-yl)-N-(1-(3,4,5-trimethoxyphenyl)-1H-imidazol-4-yl)thieno[2,3-d]pyrimidin-4-amine] | > 50
COc1cc(-n2cnc(Nc3nc(C(C)C)nc4sccc34)c2)cc(OC)c1OC [Compound 81a, 2-isopropyl-N-(1-(3,4,5-trimethoxyphenyl)-1H-imidazol-4-yl)thieno[2,3-d]pyrimidin-4-amine] | > 50
C=C(C)c1nc(Nc2cn(-c3cc(OC)c(OC)c(OC)c3)cn2)c2cccnc2n1 [Compound 82c, 2-(prop-1-en-2-yl)-N-(1-(3,4,5-trimethoxyphenyl)-1H-imidazol-4-yl)pyrido[2,3-d]pyrimidin-4-amine] | > 50

Second part, the compound after the results:

inhibition at 1 µM [%] | SMILES
> 50 | COc1cc(-n2cnc(Nc3nc(C(C)C)nc4cccnc34)c2)cc(OC)c1OC [Compound 83a, 2-isopropyl-N-(1-(3,4,5-trimethoxyphenyl)-1H-imidazol-4-yl)pyrido[3,2-d]pyrimidin-4-amine]
> 50 | C=C(C)c1nc(Nc2cn(-c3cc(OC)c(OC)c(OC)c3)cn2)c2sc(C)cc2n1 [Compound 84c, 6-methyl-2-(prop-1-en-2-yl)-N-(1-(3,4,5-trimethoxyphenyl)-1H-imidazol-4-yl)thieno[3,2-d]pyrimidin-4-amine]
> 50 | COc1cc(-n2cnc(Nc3nc(C(C)C)nc4cc(C)sc34)c2)cc(OC)c1OC [Compound 85a, 2-isopropyl-6-methyl-N-(1-(3,4,5-trimethoxyphenyl)-1H-imidazol-4-yl)thieno[3,2-d]pyrimidin-4-amine]
> 50 | COc1cc(-n2cnc(Nc3nc(C(C)C)nc4c3CCNC4)c2)cc(OC)c1OC [Compound 86a, 2-isopropyl-N-(1-(3,4,5-trimethoxyphenyl)-1H-imidazol-4-yl)-5,6,7,8-tetrahydropyrido[3,4-d]pyrimidin-4-amine]
> 50 | COc1cc2nc(Nc3cn(-c4cc(OC)c(OC)c(OC)c4)cn3)nc(C(C)C)c2cc1OC [Compound 87a, 4-isopropyl-6,7-dimethoxy-N-(1-(3,4,5-trimethoxyphenyl)-1H-imidazol-4-yl)quinazolin-2-amine]
> 50 | C=C(C)c1nc2c(c(Nc3cn(-c4cc(OC)c(OC)c(OC)c4)cn3)n1)CCCC2 [Compound 88c, 2-(prop-1-en-2-yl)-N-(1-(3,4,5-trimethoxyphenyl)-1H-imidazol-4-yl)-5,6,7,8-tetrahydroquinazolin-4-amine]
> 50 | COc1cc(-n2cnc(Nc3nc(C(C)C)nc4c3CCCC4)c2)cc(OC)c1OC [Compound 89a, 2-isopropyl-N-(1-(3,4,5-trimethoxyphenyl)-1H-imidazol-4-yl)-5,6,7,8-tetrahydroquinazolin-4-amine]
> 50 | C=C(C)c1nc(Nc2cn(-c3cc(OC)c(OC)c(OC)c3)cn2)nc2sccc12 [Compound 90b, 4-(prop-1-en-2-yl)-N-(1-(3,4,5-trimethoxyphenyl)-1H-imidazol-4-yl)thieno[2,3-d]pyrimidin-2-amine]
> 50 | COc1cc(-n2cnc(Nc3nc(C(C)C)c4ccsc4n3)c2)cc(OC)c1OC [Compound 91a, 4-isopropyl-N-(1-(3,4,5-trimethoxyphenyl)-1H-imidazol-4-yl)thieno[2,3-d]pyrimidin-2-amine]
> 50 | C=C(C)c1nc(Nc2cn(-c3cc(OC)c(OC)c(OC)c3)cn2)c2scc(C)c2n1 [Compound 92c, 7-methyl-2-(prop-1-en-2-yl)-N-(1-(3,4,5-trimethoxyphenyl)-1H-imidazol-4-yl)thieno[3,2-d]pyrimidin-4-amine]
> 50 | COc1cc(-n2cnc(Nc3nc(C(C)C)nc4scnc34)c2)cc(OC)c1OC [Compound 93a, 5-isopropyl-N-(1-(3,4,5-trimethoxyphenyl)-1H-imidazol-4-yl)thiazolo[5,4-d]pyrimidin-7-amine]
> 50 | COc1cc(-n2cnc(Nc3nc(C(C)C)nc4c3ncn4C(C)C)c2)cc(OC)c1OC [Compound 94a, 2,9-diisopropyl-N-(1-(3,4,5-trimethoxyphenyl)-1H-imidazol-4-yl)-9H-purin-6-amine]
> 50 | C=C(C)c1nc(Nc2cn(-c3cc(OC)c(OC)c(OC)c3)cn2)c2cc(F)ccc2n1 [Compound 95c, 6-fluoro-2-(prop-1-en-2-yl)-N-(1-(3,4,5-trimethoxyphenyl)-1H-imidazol-4-yl)quinazolin-4-amine]
> 50 | COc1cc(-n2cnc(Nc3nc(C(C)C)nc4c(C)csc34)c2)cc(OC)c1OC [Compound 96a, 2-isopropyl-7-methyl-N-(1-(3,4,5-trimethoxyphenyl)-1H-imidazol-4-yl)thieno[3,2-d]pyrimidin-4-amine]
> 50 | C=C(C)c1nc(Nc2cn(-c3cc(OC)c(OC)c(OC)c3)cn2)c2ccn(C(C)C)c2n1 [Compound 97c, 7-isopropyl-2-(prop-1-en-2-yl)-N-(1-(3,4,5-trimethoxyphenyl)-1H-imidazol-4-yl)-7H-pyrrolo[2,3-d]pyrimidin-4-amine]
> 50 | COc1cc(-n2cnc(Nc3nc(C(C)C)nc4c3ccn4C(C)C)c2)cc(OC)c1OC [Compound 98a, 2,7-diisopropyl-N-(1-(3,4,5-trimethoxyphenyl)-1H-imidazol-4-yl)-7H-pyrrolo[2,3-d]pyrimidin-4-amine]

Reference: patent publication US20240270750A1, “IMIDAZOLE-CONTAINING INHIBITORS OF ALK2 KINASE” (BioCryst Pharmaceuticals, Inc., priority 2021, published 2024)
